Laboratory results from patent US10473666B2, “Dye compounds” (SFC CO., LTD., priority 2015, dated 2019).

How the values were obtained:
[1] = Absorption spectra, emission spectra, molar extinction coefficients and quantum yields of the dye compounds; format: physicochemical
[2] = Photophysical properties incl. two-photon cross-sections (femtosecond fluorescence measurement technique); format: physicochemical; details: for eΦ: Molar extinction coefficient × fluorescence quantum yield: in M-1cm-1
Procedure: All measurements were performed in DMSO, ethanol, and PBS buffer. Two-photon cross-sections (δ) were measured using a femtosecond (fs) fluorescence measurement technique.

[3] = system: HeLa A431 cells; experiment: Photostability: fluorescence intensity over time in stained HeLa A431 cells; format: cell-based; details: HeLa A431 cells stained with 1.0 μM dye
Procedure: The fluorescence intensities of three areas A, B, and C of HeLa A431 cells stained with the compound of Formula 110 (1.0 μM) were measured at 2-sec intervals for 3500 sec.
The fluorescence intensities of four areas A, B, C, and D of HeLa A431 cells stained with the compound of Formula 98 (1.0 μM) were measured at 2-sec intervals for 3500 sec.
The fluorescence intensities of two areas A and B of HeLa A431 cells stained with Cy3B (1.0 μM) were measured at intervals of 2 s for 2000 s.

[4] = Absorption spectra, emission spectra, molar extinction coefficients and quantum yields of the dye compounds; format: physicochemical; details: Table 1; solvent DMSO
Procedure: Absorption spectra (λabs), emission spectra (λem), molar extinction coefficients (ε), and quantum yields of the compounds of Formulae 1-7 were measured and the results are shown in Table 1.
Absorption spectra (λabs), emission spectra (λem), molar extinction coefficients, and quantum yields of the compounds of Formulae 44-53 were measured and the results are shown in Table 4.
The products of the two factors (molar extinction coefficient×fluorescence quantum yield) for the inventive dye compounds were much greater than that for the comparative compound.

Quantum yield ([1]; Table 6, solvent DMSO)	ε (molar extinction coefficient) ([1]; Table 6, solvent DMSO)	λabs ([1]; Table 6, solvent DMSO) [nm]	λem ([1]; Table 6, solvent DMSO) [nm]	Quantum yield ([1]; Table 6, solvent EtOH)	ε (molar extinction coefficient) ([1]; Table 6, solvent EtOH)	λabs ([1]; Table 6, solvent EtOH) [nm]	λem ([1]; Table 6, solvent EtOH) [nm]	Quantum yield ([1]; Table 6, solvent PBS)	ε (molar extinction coefficient) ([1]; Table 6, solvent PBS)	λabs ([1]; Table 6, solvent PBS) [nm]	λem ([1]; Table 6, solvent PBS) [nm]	SMILES	also measured
												CC1(C)C2=C3C=C4C=CC(=O)C=C4OC3CCN2c2ccc(CC(=O)O)cc21 (centres unmarked) [Formula 52]	Quantum yield ([1]; Table 4, solvent PBS): 0.61; λabs ([1]; Table 4, solvent PBS): 541 nm; λem ([1]; Table 4, solvent PBS): 564 nm
												CC1(C)C2=C3C=C4C=C(c5nc6ccc(C(=O)O)cc6s5)C(=O)C=C4OC3CCN2c2ccccc21 (centres unmarked) [Formula 51]	Quantum yield ([1]; Table 4, solvent DMSO): 0.75; ε (molar extinction coefficient) ([1]; Table 4, solvent DMSO): 78,800 M^−1cm^−1; λabs ([1]; Table 4, solvent DMSO): 595 nm; λem ([1]; Table 4, solvent DMSO): 621 nm
0.70	54,000 M^−1cm^−1	584	630	0.87	66,000 M^−1cm^−1	585	623	0.61	49,000 M^−1cm^−1	578	619	C1=C2c3sc4ccccc4[n+]3CCC2Oc2c1cc1c3c2CCCN3CCC1 (centres unmarked) [Formula 101]	d: Peak two-photon cross-section ([2]; Buffer (PBS buffer)): 89 10^−50 cm^4s per photon (GM); dΦ: Two-photon action cross-section ([2]; Buffer (PBS buffer)): 54 GM; Φ: Fluorescence quantum yield ([2]; Buffer (PBS buffer)): 0.61; λ^(2)max^abs: Maximum wavelength in two-photon absorption spectrum ([2]; Buffer (PBS buffer)): 740 nm; λmax^fl: Maximum wavelength in single-photon emission spectrum ([2]; Buffer (PBS buffer)): 619 nm; eΦ: Molar extinction coefficient × fluorescence quantum yield ([2]; Buffer (PBS buffer)): 29890; Φ: Fluorescence quantum yield ([2]; DMSO): 0.70; λmax^fl: Maximum wavelength in single-photon emission spectrum ([2]; DMSO): 630 nm; dΦ: Two-photon action cross-section ([2]; EtOH): 54 GM; λ^(2)max^abs: Maximum wavelength in two-photon absorption spectrum ([2]; EtOH): 720 nm
0.99	23,000 M^−1cm^−1	570	586	0.78	6,800 M^−1cm^−1	557	578	0.70	7,100 M^−1cm^−1	524	571	Oc1ccc2c(c1)OC1CC[n+]3c(sc4ccccc43)C1=C2 (centres unmarked) [Formula 102]	d: Peak two-photon cross-section ([2]; Buffer (PBS buffer)): 60 10^−50 cm^4s per photon (GM); dΦ: Two-photon action cross-section ([2]; Buffer (PBS buffer)): 42 GM; Φ: Fluorescence quantum yield ([2]; Buffer (PBS buffer)): 0.70; λ^(2)max^abs: Maximum wavelength in two-photon absorption spectrum ([2]; Buffer (PBS buffer)): 910 nm; λmax^fl: Maximum wavelength in single-photon emission spectrum ([2]; Buffer (PBS buffer)): 571 nm; eΦ: Molar extinction coefficient × fluorescence quantum yield ([2]; Buffer (PBS buffer)): 4970; Φ: Fluorescence quantum yield ([2]; DMSO): 1.00; λmax^fl: Maximum wavelength in single-photon emission spectrum ([2]; DMSO): 586 nm; dΦ: Two-photon action cross-section ([2]; EtOH): 7.6 GM; λ^(2)max^abs: Maximum wavelength in two-photon absorption spectrum ([2]; EtOH): 750 nm
0.70	37,000 M^−1cm^−1	613	649	0.50	44,000 M^−1cm^−1	611	645	0.28	35,000 M^−1cm^−1	604	643	CC1=CC(C)(C)N2CCCc3c4c(cc1c32)C=C1C2=[N+](CCC1O4)c1ccccc1C2(C)C (centres unmarked) [Formula 105]	
0.38	52,000 M^−1cm^−1	646	685					0.09	28,000 M^−1cm^−1	559	572	C[n+]1c(/C=C/C2=CC3=CC4=C5N(CCC4OC3=CC2=O)c2ccccc2C5(C)C)sc2ccccc21 (centres unmarked) [Formula 104]	
												CC[N+]1=C(/C=C/C=C2/N(CCCCCC(=O)O)c3ccccc3C2(C)C)C(C)(C)c2ccccc21 [Comparative, reference compound]	Q.Y. (quantum yield) ([1]; Table 1, solvent not given): 0.04; ε (molar extinction coefficient) ([1]; Table 1, solvent not given): 150,000 M^−1cm^−1; λabs ([1]; Table 1, solvent not given): 548 nm; λem ([1]; Table 1, solvent not given): 562 nm; Quantum yield ([1]; Table 4, solvent not given): 0.04; ε (molar extinction coefficient) ([1]; Table 4, solvent not given): 150,000 M^−1cm^−1; λabs ([1]; Table 4, solvent not given): 548 nm; λem ([1]; Table 4, solvent not given): 562 nm; Quantum yield ([1]; Table 6, solvent not given): 0.04; ε (molar extinction coefficient) ([1]; Table 6, solvent not given): 150,000 M^−1cm^−1; λabs ([1]; Table 6, solvent not given): 548 nm; λem ([1]; Table 6, solvent not given): 562 nm
												CC1(C)C2=C3C=C4C5=[N+](CCC4OC3CCN2c2ccccc21)c1ccccc1C5(C)C (centres unmarked) [Cy3B, reference compound]	photostability [3]: poor photostability; change of fluorescence intensity over time ([3]; measured at intervals of 2 s for 2000 s): greatly reduced for 1500 s
												CC1(C)C2=C3C=C4C=C(C(=O)O)C(=O)C=C4OC3CCN2c2ccc(S(=O)(=O)O)cc21 (centres unmarked) [Formula 53]	Quantum yield ([1]; Table 4, solvent DMSO): 0.95; ε (molar extinction coefficient) ([1]; Table 4, solvent DMSO): 33,000 M^−1cm^−1; λabs ([1]; Table 4, solvent DMSO): 546 nm; λem ([1]; Table 4, solvent DMSO): 570 nm
0.70	40,000 M^−1cm^−1	629	664	0.52	50,000 M^−1cm^−1	628	659	0.29	37,000 M^−1cm^−1	624	655	CC1=CC(C)(C)N2CCCc3c4c(cc1c32)C=C1C2=[N+](CCC1O4)c1ccc3ccccc3c1C2(C)C (centres unmarked) [Formula 107]	
												CC1(C)CCN(CCCCCC(=O)O)c2cc3c(cc21)C=C1C2=[N+](CCC1O3)c1ccccc1C2(C)C (centres unmarked) [Formula 7]	Q.Y. (quantum yield) [4]: 1.00; λabs [4]: 584 nm; ε (molar extinction coefficient) ([1]; Table 1, solvent DMSO): 60,000 M^−1cm^−1; λem ([1]; Table 1, solvent DMSO): 615 nm
												CC1(C)C2=[N+](CCC3Oc4cc5c(cc4C=C23)C(CS(=O)(=O)O)=CC(C)(C)N5CCCCCC(=O)O)c2ccc(S(=O)(=O)[O-])cc21 (centres unmarked) [Formula 5]	Q.Y. (quantum yield) [4]: 0.56; λabs [4]: 617 nm; ε (molar extinction coefficient) ([1]; Table 1, solvent DMSO): 65,000 M^−1cm^−1; λem ([1]; Table 1, solvent DMSO): 659 nm
												CC1(CCCCCC(=O)O)C2=[N+](CCC3Oc4c(cc5c6c4CCCN6CCC5)C=C23)c2ccccc21 (centres unmarked) [Formula 2]	Q.Y. (quantum yield) [4]: 0.94; λabs [4]: 597 nm; ε (molar extinction coefficient) ([1]; Table 1, solvent DMSO): 71,500 M^−1cm^−1; λem ([1]; Table 1, solvent DMSO): 623 nm
0.72	55,000 M^−1cm^−1	620	660	0.59	70,000 M^−1cm^−1	620	657	0.21	29,000 M^−1cm^−1	616	652	CC1=CC(C)(C)N(CCCCCC(=O)O)c2cc3c(cc21)C=C1C2=[N+](CCC1O3)c1ccc3ccccc3c1C2(C)C (centres unmarked) [Formula 106]	
												CC1(C)CCN(CCCCCC(=O)O)c2ccc3c(c21)OC1CC[N+]2=C(C1=C3)C(C)(C)c1ccccc12 (centres unmarked) [Formula 6]	Q.Y. (quantum yield) [4]: 0.72; λabs [4]: 579 nm; ε (molar extinction coefficient) ([1]; Table 1, solvent DMSO): 12,800 M^−1cm^−1; λem ([1]; Table 1, solvent DMSO): 612 nm
0.65	21,000 M^−1cm^−1	467	563	0.52	22,000 M^−1cm^−1	474	558	0.42	30,000 M^−1cm^−1	463	558	COc1ccc2c(c1)OC1CC[N+]3=C(C1=C2)C(C)(C)c1ccccc13 (centres unmarked) [Formula 99]	
												CN(CCCCCC(=O)O)c1ccc2c(c1)OC1CC[N+]3=C(C1=C2)C(C)(C)c1cc(S(=O)(=O)CC(S(=O)(=O)[O-])S(=O)(=O)O)ccc13 (centres unmarked) [Formula 4]	Q.Y. (quantum yield) [4]: 0.81; λabs [4]: 584 nm; ε (molar extinction coefficient) ([1]; Table 1, solvent DMSO): 76,000 M^−1cm^−1; λem ([1]; Table 1, solvent DMSO): 614 nm
0.88	108,000 M^−1cm^−1	566	586	0.84	70,000 M^−1cm^−1	547	574	0.79	48,000 M^−1cm^−1	516	563	CC1(C)C2=C3C=C4C=C(C=O)C(=O)C=C4OC3CCN2c2ccccc21 (centres unmarked) [Formula 103]	
0.90	65,000 M^−1cm^−1	594	618	0.90	75,000 M^−1cm^−1	592	612	0.80	54,000 M^−1cm^−1	589	608	CC1(C)C2=[N+](CCC3Oc4c(cc5c6c4CCCN6CCC5)C=C23)c2ccccc21 (centres unmarked) [Formula 100]	d: Peak two-photon cross-section ([2]; Buffer (PBS buffer)): 272 10^−50 cm^4s per photon (GM); dΦ: Two-photon action cross-section ([2]; Buffer (PBS buffer)): 177 GM; Φ: Fluorescence quantum yield ([2]; Buffer (PBS buffer)): 0.65; λ^(2)max^abs: Maximum wavelength in two-photon absorption spectrum ([2]; Buffer (PBS buffer)): 740 nm; λmax^fl: Maximum wavelength in single-photon emission spectrum ([2]; Buffer (PBS buffer)): 611 nm; eΦ: Molar extinction coefficient × fluorescence quantum yield ([2]; Buffer (PBS buffer)): 61750; Φ: Fluorescence quantum yield ([2]; DMSO): 0.90; λmax^fl: Maximum wavelength in single-photon emission spectrum ([2]; DMSO): 618 nm; dΦ: Two-photon action cross-section ([2]; EtOH): 114 GM; λ^(2)max^abs: Maximum wavelength in two-photon absorption spectrum ([2]; EtOH): 750 nm
